We go through 33 compounds from patent US20240150368A1, “ULK INHIBITORS AND METHODS OF USE THEREOF” (Deciphera Pharmaceuticals, LLC, priority 2022, published 2024).

The subject of assay [1] is ULK kinase substrate ATG13 (pS318-ATG13) in HCT-116 cells. Kind of assay: pATG13 levels of mutant KRas HCT-116 cells after treatment with ULK inhibitors in combination with trametinib (ELISA). In kind it is cell-based, human. As to the method:
pATG13 Levels of Mutant KRas HCT-116 Cells after Treatment with ULK Inhibitors in Combination with Trametinib
HCT-116 human colon cancer cells (10000 cells/well) were added to a 384-well tissue-culture treated plate in 50 μL of pre-warmed DMEM medium supplemented with 10% characterized fetal bovine serum (Invitrogen, Carlsbad, CA), 100 units/mL penicillin G, and 100 μg/mL streptomycin and allowed to grow overnight at 37° C., 5% CO2, and 95% humidity. The following day, 10 μL of media containing trametinib or DMSO as a control was added to wells. The final concentration of trametinib in wells was 250 nM. A dose response of a test compound (0.6 μL per well) was added. DMSO (0.6 μL) was added to control wells. The plate was briefly shaken to mix wells and then incubated at 37° C. overnight. The next day, the media was aspirated and cells were washed with Dulbecco's Phosphate Buffered Saline (Gibco). Cells were lysed using MPER lysis buffer (Pierce, Rockford, IL) containing Halt Phosphatase and Protease Inhibitors (Pierce, Rockford, IL) and Phosphatase inhibitor cocktail 2 (Sigma, St. Louis, MO) at 4° C. for 10 minutes with shaking.
Cellular levels of phospho-Serine 318 ATG13 (pATG13) were measured via an ELISA method. Total ATG13 Antibody (Cell Signaling Cat #13273) was used to coat the wells. The plate was incubated at 4° C. overnight and washed with ELISA wash buffer (Biolegend Cat #421601). The wells were then blocked with assay diluent (Biolegend Cat #421203) for 1 h at rt. Plate wells were washed with ELISA wash buffer. Cell lysate was added to wells and incubated at rt for 2 h. Plate wells were washed with ELISA wash buffer. Biotinylated pS318-ATG13 antibody (Rockland Immunochemicals Cat #600-401-C49) was diluted in assay diluent and added to each well and incubated at rt for 1 h. Plate wells were washed with ELISA wash buffer. Streptavidin linked to horseradish peroxidase (Thermo Fisher Cat #21140) was diluted in assay diluent and added to each well and incubated at rt for 1 h. Plate wells were washed with ELISA wash buffer. High sensitivity TMB substrate (Biolegend Cat #421101) was added to each well and incubated at rt for 20 minutes. The reaction was stopped with 2.0N sulfuric acid. The plate was analyzed at on a plate reader measuring absorbance at 450 nm and 540 nm (background). Signal was calculated by first subtracting the background absorbance at 540 nm from the absorbance at 450 nm for each well. Next, the background corrected absorbance at 450 nm from blank wells was subtracted from test wells. Data was compared to control wells to determine % ATG13 phosphorylation. GraphPad Prism was used to calculate IC50 values.
A general note: An ELISA detects its analyte on a solid surface through an enzyme-linked reagent.

The test system of assay [2] is ULK kinase substrate ATG13 (pS318-ATG13) in A549 (KRAS mutant) cells. The assay is described as follows: pATG13 levels of mutant KRas A549 cells after treatment with ULK inhibitors in combination with trametinib (ELISA). The class given is cell-based, human. The method in brief:
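A549 cells grown overnight were treated with a test-compound dose response plus trametinib at 250 nM final (or DMSO) overnight at 37° C. Lysates were assayed by total-ATG13 capture and biotinylated pS318-ATG13 detection ELISA (450 nm minus 540 nm background); % phosphorylation versus controls gave IC50 values.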

`CC/C(Nc1cnn(C2CCN(C(C)C)CC2)c1)=C1/C(=O)Nc2ccc(C(=O)NC[C@@H](C)OC)cc21` [Example 58]: the IC50 (usually the concentration that gives 50% inhibition) in assay [1] was at most 100 nM; in assay [2], 100 to 300 nM. For `CC/C(Nc1cnn(C2CCN(C(C)C)CC2)c1)=C1/C(=O)Nc2ccc(C(=O)N(C)CC(F)(F)F)cc21` [Example 7], the IC50 in assay [1] and in assay [2] was at most 100 nM each time. For the compound `CC/C(Nc1cnn(C(C)C)c1)=C1/C(=O)Nc2ccc(C(=O)NCC(F)(F)F)cc21` [Example 4, (Z)-3-(1-((1-isopropyl-1H-pyrazol-4-yl)amino)propylidene)-2-oxo-N-(2,2,2-trifluoroethyl)indoline-5-carboxamide], the IC50 is at most 100 nM in assay [1] and 100 to 300 nM in assay [2]. In the same order, the values of `CC/C(Nc1cnn(C2CCN(C(C)C)CC2)c1)=C1/C(=O)Nc2ccc(C(=O)NCCC#N)cc21` [Example 26] are at most 100 nM and above 600 nM. In the same order, the values of `CC/C(Nc1cnn(C(C)C)c1)=C1/C(=O)Nc2ccc(C(=O)NCC(C)C)cc21` [Example 130] are at most 100 nM and at most 100 nM. In the same order, the values of `CC/C(Nc1cnn(C2CCNCC2)c1)=C1/C(=O)Nc2ccc(C(=O)NC[C@H]3CCCO3)cc21` [Example 52] are at most 100 nM and above 600 nM. On to `CC/C(Nc1cnn(C2CCN(C(C)C)CC2)c1)=C1/C(=O)Nc2ccc(C(=O)NCC(F)(F)F)cc21` [Example 8], for which the IC50 in assay [1] and in assay [2] was at most 100 nM each time. In the case of `CC/C(Nc1cnn(C2CC3CCC(C2)N3C)c1)=C1/C(=O)Nc2ccc(C(=O)NC[C@H]3CCCO3)cc21` (some centres unmarked) [Example 53], the 50% inhibitory concentration (IC50) in assay [1] was at most 100 nM; in assay [2], above 600 nM. For `CC/C(Nc1cnn(C2CCN(C(C)C)CC2)c1)=C1/C(=O)Nc2ccc(C(=O)NCC(C)C)cc21` [Example 16] the same measures were at most 100 nM and at most 100 nM. In the same order, the values of `CC/C(Nc1cnn(CC)c1)=C1/C(=O)Nc2ccc(C(=O)NCC(F)(F)F)cc21` [Example 107] are at most 100 nM and at most 100 nM. For `CC/C(Nc1cnn(C(C)C)c1)=C1/C(=O)Nc2ccc(C(=O)NCC3(C(F)(F)F)CC3)cc21` [Example 140] the same measures were at most 100 nM and at most 100 nM. For `CC/C(Nc1ccc(N2CC3CC(C2)N3C)cc1)=C1/C(=O)Nc2ccc(C(=O)NCC(F)(F)F)cc21` [Example 60], the IC50 in assay [1] and in assay [2] was at most 100 nM each time. Turning to `CC/C(Nc1cnn(C2CCC2)c1)=C1/C(=O)Nc2ccc(C(=O)NCC(F)(F)F)cc21` [Example 117], the IC50 in assay [1] and in assay [2] was at most 100 nM each time. For the compound `CC/C(Nc1cnn(C(F)F)c1)=C1/C(=O)Nc2ccc(C(=O)NCC(F)(F)F)cc21` [Example 114], the IC50 in assay [1] was at most 100 nM; in assay [2] it was 100 to 300 nM. Consider `CC/C(Nc1ccc(N2C[C@H]3CN(C)C[C@H]3C2)cc1)=C1/C(=O)Nc2ccc(C(=O)NCC(F)(F)F)cc21` [Example 61], for which the IC50 in assay [1] and in assay [2] was at most 100 nM each time. With `CC/C(Nc1ccc(N2CCN(C(C)C)CC2)cc1)=C1/C(=O)Nc2ccc(C(=O)NC[C@H]3CCCO3)cc21` [Example 47], the IC50 in assay [1] and in assay [2] was at most 100 nM in each case. Consider `CC/C(Nc1cnn(C2CCN(C(C)C)CC2)c1)=C1/C(=O)Nc2ccc(C(C)=O)cc21` [Example 123], for which the IC50 in assay [1] and in assay [2] was 100 to 300 nM throughout. With `CC/C(Nc1cnn(C2CN(C)C2)c1)=C1/C(=O)Nc2ccc(C(=O)NC[C@H]3CCCO3)cc21` [Example 54], the results for the IC50 in assay [1] and in assay [2] were at most 100 nM and 300 to 600 nM, respectively. For `CC/C(Nc1ccc(N2CCN(C(C)C)CC2)cn1)=C1/C(=O)Nc2ccc(C(=O)NC[C@H]3CCCO3)cc21` [Example 93] the same measures were at most 100 nM and at most 100 nM. Take `CC/C(Nc1cnn(CC(C)OC)c1)=C1/C(=O)Nc2ccc(C(=O)NCC(F)(F)F)cc21` (centres unmarked) [Example 157]: the IC50 in assay [2] fell in the range of 100 to 300 nM. Same read-out and setting: then `CC/C(Nc1cnn(C2CCN(C)CC2)c1)=C1/C(=O)Nc2ccc(C(=O)NC[C@H]3CCCO3)cc21` [Example 51], with above 600 nM. Regarding `CC/C(Nc1cnn(C(C)C)c1)=C1/C(=O)Nc2ccc(C(=O)NCC(C)(C)F)cc21` [Example 135], the IC50 in assay [1] and in assay [2] was at most 100 nM in each case. `CC/C(Nc1cnn(C2COC2)c1)=C1/C(=O)Nc2ccc(C(=O)NCC(F)(F)F)cc21` [Example 118]: the IC50 in assay [2] was 300 to 600 nM. Same read-out and setting: next, `CC/C(Nc1cnn(C(C)C)c1)=C1/C(=O)Nc2ccc(C(=O)NCCC(F)(F)F)cc21` [Example 166]: at most 100 nM. On to `CC/C(Nc1cnn(C2CCN(C(C)C)CC2)c1)=C1/C(=O)Nc2ccc(C(=O)N(C)CCOC)cc21` [Example 9], for which the half-maximal inhibitory concentration (IC50) in assay [1] was at most 100 nM; in assay [2], 300 to 600 nM. As for `CC/C(Nc1cnn(C(C)C)c1)=C1/C(=O)Nc2ccc(C(=O)NCC(C)(C)OC)cc21` [Example 148], the IC50 in assay [2] lay in the range of 100 to 300 nM. For the compound `CC/C(Nc1cnn(C(F)(F)F)c1)=C1/C(=O)Nc2ccc(C(=O)NCC(F)(F)F)cc21` [Example 113], the IC50 in assay [1] was at most 100 nM; in assay [2], 100 to 300 nM. `CC/C(Nc1cnn(C(C)CC)c1)=C1/C(=O)Nc2ccc(C(=O)NCC(F)(F)F)cc21` (centres unmarked) [Example 159]: the IC50 in assay [2] was in the range of 100 to 300 nM. In the case of `CC/C(Nc1cnn(C2CCN(C(C)C)CC2)c1)=C1/C(=O)Nc2ccc(C(=O)NCC3CCCC3)cc21` [Example 44], the IC50 in assay [2] is at most 100 nM. As to `CC/C(Nc1cnn(C(F)F)c1)=C1/C(=O)Nc2ccc(C(=O)NCC(C)C)cc21` [Example 147], in assay [2], the IC50 was in the range of 100 to 300 nM. As to `CC/C(Nc1cnn(C2CCN(C(C)C)CC2)c1)=C1/C(=O)Nc2ccc(C(=O)NCCOC)cc21` [Example 98], the figures for the IC50 in assay [1] and in assay [2] were at most 100 nM and 300 to 600 nM, respectively.

As to `CC/C(Nc1ccc(N2CC3(CN(C)C3)C2)cc1)=C1/C(=O)Nc2ccc(C(=O)NCC(F)(F)F)cc21` [Example 62], in assay [2], the IC50 was 100 to 300 nM. The same measure, in the same setting: next, `CC/C(Nc1cnn(C2CCN(C(C)C)CC2)c1)=C1/C(=O)Nc2ccc(C(=O)NCC(C)(C)OC)cc21` [Example 27]: 100 to 300 nM.
